Measured values published in patent US20120225889A1, “USE OF MACROCYCLIC LACTONE DERIVATIVES FOR THE TREATMENT OF INFLAMMATORY DISORDERS” (PIRAMAL LIFE SCIENCES LIMITED, priority 2010, published 2012).
Like-named read-outs stand apart in the source and are kept apart here.

What was measured:
CEBPα = assay: Gene expression profile using RTQ-PCR: CEBPα; type: cell-based, human; settings: 3 μM
Procedure: (§1) The effect of the compound of example 7 was measured in stimulated untreated cells from the monocytic cell line (THP-1), human monocytes and synovial cells from rheumatoid arthritis patient. The effect of the compound in the THP-1 cell line was measured in terms of gene expression and was expressed as fold changes as compared to the cell stimulated control with no drug treatment.
(§2) THP-1 cells, human monocytes and synovial cells were treated with compound of example 7 or vehicle (0.5% DMSO). Total RNA isolation using a commercial RNA extraction kit (Qiagen Corporation, Germany) The first-strand cDNA was synthesized from total RNA using first strand cDNA synthesis kit from Invitrogen Corporation (California, USA). This was followed by real time quantitative polymerase chain reaction (RTQ PCR) using gene specific primers and standard thermal program of initial denaturation at 95° C. for 5 min and cycles of 95° C. for 10 seconds, followed by 60° C. for 30 seconds (Realplex PCR machine from Eppendorf, Germany). Quantitative measurement of products made during PCR cycles was normalized against a housekeeping gene (Actin) and was used to measure the gene expression as fold changes as compared to respective control.

GBP-1 = assay: Gene expression profile using RTQ-PCR: GBP-1; type: cell-based, human; settings: 3 μM, 12 h
Procedure: as §1, §2

hPBMCs = assay: Lymphocyte proliferation assay (T-cell proliferation of normal hPBMCs); type: cell-based; settings: Homo sapiens
Excerpt: The assay method was designed as in references, The Journal of Immunology, 153, 1-9, (1994), and Clinical and Diagnostic Laboratory Immunology, 7, 687-692, (2000), the disclosure of which is incorporated by reference for the teaching of the assay.
(§3) hPBMCs were obtained from healthy donors by centrifugation of heparinized venous blood over Ficoll/Hypaque solution (Histopaque-1077, Sigma, USA). Isolated hPBMCs were suspended in RPMI 1640 culture medium supplemented with 10% FBS and seeded at a density of 50,000 cells/well in a 96-well plate (Nunc, USA). The cells were incubated at 37° C., 5% CO2 for a period of 24 h. These cells were used for the lymphocyte proliferation as well as cytokine release assay.
The plated cells were treated with different concentrations of the test compound (prepared as 20 mM stock in DMSO and diluted with DMSO to achieve the following final concentrations in the assay: 100, 10, 1, 0.1, 0.01, 0.001 and 0.0001 μM) and were incubated for 30 min. The cells were then stimulated with 5 ng/mL PMA (Sigma, USA, prepared as 100 μg/mL stock in RPMI and was diluted to 5 ng/mL) and 5 μg/mL PHA (Sigma, USA, prepared as a 1 mg/mL stock in RPMI). The plates were incubated at 37° C., 5% CO2 for 48 h. The cells were treated overnight with 0.1 μCi of tritiated thymidine per well (obtained from BARC, India; prepared as stock of 1 mCi/mL) and was diluted in KRPH buffer to 10 μCi/mL and […] and was added per well to obtain a final concentration 0.1 μCi/well) and at the end of 48 h, the anti-proliferative effect of the compound was measured using the following formula: […]
Controls consisted of hPBMCs with PHA and PMA (Stimulated), hPBMCs with RPMI (Un-stimulated), hPBMCs with FK506 (positive control, Sigma, USA, prepared as 20 mM stock in DMSO and diluted with DMSO to achieve the following final concentrations in the assay: 100, 10, 1, 0.1, 0.01, 0.001 and 0.0001 μM).

CEBPβ = assay: Gene expression profile using RTQ-PCR: CEBPβ; type: cell-based, human; settings: 3 μM
Procedure: as §1, §2

IL-6 = assay: Cytokine release assay in hPBMCs: IL-6; type: cell-based; settings: Homo sapiens
Procedure: as §3
The plated cells were treated with different concentrations of the test compound (prepared as mM stock in DMSO and diluted with DMSO to achieve the following final concentrations in the assay: 100, 10, 1, 0.1, 0.01, 0.001, 0.0001, 0.00001 and 0.000001 μM) and incubated for 30 min. The cells were then stimulated with PHA (prepared as 1 mg/mL stock in RPMI 1640 culture medium and used at a final concentration of 5 μg/mL). FK506 was used as a standard. The plates were incubated at 37° C., 5% CO2 for 48 h. The cytokines in the supernatant collected were detected using ELISA kit (BD biosciences, USA). The cytokines evaluated in the assay were TNF-α, IL-2, IL-6, and IFN-γ.

[1] = Human monocytes, 3 h, ± SE, N = 3

C/C=C/C(O)C(C)/C=C/C(=N\O)C(C)C(O)C(C)C1OC(=O)/C(OC)=C/C(C)=C/C(C)C(O)C(CC)C(O)C(C)C/C(C)=C/C=C/C1OC (stereo not drawn) [Compound of example 7, (3Z,5E,13E,15E)-18-((5Z,6E,10E)-3,9-Dihydroxy-5-(hydroxymino)-4,8-dimethyldodeca-6,10-dien-2-yl)-9-ethyl-8,10-dihydroxy-3,17-dimethoxy-5,7,11,13-tetramethyl oxacyclooctadeca-3,5,13,15-tetraen-2-one]
CEBPα gene expression (CEBPα; [1]): −3.9 + 0.4 log fold change | CEBPα gene expression (CEBPα; Synovial cells, 12 h, N = 1): −2.4 log fold change | CEBPα gene expression (CEBPα; THP-1 cells, 12 h, ± SE, N = 3): −2.1 + 2.2 log fold change | GBP-1 gene expression (GBP-1; Synovial cells, N = 1): −1.5 log fold change | GBP-1 gene expression (GBP-1; THP-1 cells, ± SE, N = 3): −1.6 + 1.0 log fold change | IC50 (hPBMCs; read-out: Stimulated hPBMC's IC50 (inhibition of cell proliferation)): 3 nM | IC50 (hPBMCs; read-out: Unstimulated hPBMC's IC50 (inhibition of cell proliferation)): 5000 nM | CEBPβ gene expression (CEBPβ; [1]): −2.2 + 0.3 log fold change | CEBPβ gene expression (CEBPβ; Synovial cells, 12 h, N = 1): 0.4 log fold change | CEBPβ gene expression (CEBPβ; THP-1 cells, 12 h, ± SE, N = 3): −0.2 + 0.5 log fold change | IC50 (IL-6; Table 3: PHA-PMA induced hPBMC's, 48 h, read-out: IL-6 IC50): 10 nM | IC50 (IL-6; Table 4: mitogen stimulated production from hPBMC's, read-out: IL-6 (IC50 μM)): 0.007 nM
